According to patent US7858105B2, “Inhibitors of melanocyte tyrosinase as topical skin lighteners” (Mediquest Therapeutics, Inc., priority 2000, dated 2010):
Values after ≈ are worked out from the molar mass of the structure shown. Read-outs that look alike come from different tables or passages of the source.

Key:
Mel-Ab melanocytes [1] = test: mammalian-melanocyte-culture pigment assay system; type: cell-based, mouse; settings: read-out: P: concentration of compound that produces 50% inhibition in the mammalian-melanocyte-culture pigment assay system
From the text: (§1) In the present invention, one or all of three in vitro bioassays can be utilized to evaluate the efficacy and toxicity of candidate skin-lightening compounds. The three bioassays characterize the compounds with regard to mammalian tyrosinase enzyme inhibition (cell free), pigmentation in melanocyte cultured cells, and cytotoxicity of mammalian cultured cells. Both cell-based pigmentation and cell-free enzymatic assays have been developed using the mammalian melanocyte cell line, Mel-Ab, a C57BL/6 mouse-derived cell line that produces high levels of melanin. A distinct advantage of this approach is that humans share substantial sequence similarities in their genes (DNA) and proteins (such as tyrosinase) with mice, relative to non-mammalian species (e.g., mushrooms). So, mouse Mel-Ab melanocytes can serve as adequate surrogates for human melanocytes for many pharmacologic purposes.
(§2) These adherent murine melanocytes are grown on tissue culture plastic in medium supplemented with fetal bovine serum, 12-O-tetradecanoylphorbol-13-acetate (TPA) to stimulate cell division via down-regulation of protein kinase C, [22, 23] and cholera toxin to stimulate adenylate cyclase activity in the absence of α-MSH. Cellular lysates of Mel-Ab cells may be used as tyrosinase enzyme preparations. Multi-well plate assays have been validated for enzyme inhibition (e.g., DOPA oxidation by colorimetric measurement or radiolabeled substrate incorporation into melanin) and for pigmentation assays on cultured Mel-Ab cells. After 4 days of treatment of cultured cells, melanin content is determined using a spectrophotometer at 400+ nm. This assay can detect an apparent loss in pigmentation resulting from either inhibition of de novo synthesis (e.g. via inhibition of tyrosinase, or the adenylate cyclase pathway, or another pathway) or a cytostatic/cytotoxic mechanism. It is therefore a broad primary screen. It is used in parallel with the tyrosinase enzymatic assay to determine whether an inhibitor of pigmentation at the cellular level is acting primarily at the enzyme level.
(§3) A first class of compounds based upon the template compound benzimidazolethiol (lower left structure) were tested for tyrosinase inhibition, cell culture pigment inhibition, and toxicity, by methods described in Curto, E. V., et al. (1999).

mammalian tyrosinase [2] = biological target: T1, mammalian tyrosinase (Mus musculus, UniProt P11344); test: cell-free mammalian-enzyme assay system (tyrosinase inhibition, Mel-Ab cell lysates); type: biochemical; settings: read-out: E: concentration of compound that produces 50% pigment inhibition in the cell-free mammalian-enzyme assay system
T1 construct: Cellular lysates of Mel-Ab cells may be used as tyrosinase enzyme preparations; endogenous in cells; host or cells: Mel-Ab mouse melanocytes (C57BL/6-derived), cell lysate
T1 sequence (P11344 19-533): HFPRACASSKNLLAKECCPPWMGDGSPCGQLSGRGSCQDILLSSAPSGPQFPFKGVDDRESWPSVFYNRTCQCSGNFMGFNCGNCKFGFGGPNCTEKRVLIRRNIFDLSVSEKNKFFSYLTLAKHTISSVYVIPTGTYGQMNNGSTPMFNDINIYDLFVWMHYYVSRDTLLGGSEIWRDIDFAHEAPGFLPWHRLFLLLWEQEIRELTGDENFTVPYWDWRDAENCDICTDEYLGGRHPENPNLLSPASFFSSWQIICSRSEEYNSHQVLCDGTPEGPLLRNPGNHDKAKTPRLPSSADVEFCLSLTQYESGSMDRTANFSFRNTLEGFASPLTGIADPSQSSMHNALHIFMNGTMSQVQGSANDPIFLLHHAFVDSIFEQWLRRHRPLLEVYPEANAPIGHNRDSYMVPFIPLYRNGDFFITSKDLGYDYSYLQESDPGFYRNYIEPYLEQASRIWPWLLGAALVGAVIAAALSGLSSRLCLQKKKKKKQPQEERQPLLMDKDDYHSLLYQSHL
From the text: as §1, §2
A distinct advantage of the screening systems (developed by the inventors of the present invention) is the focus on mammalian tyrosinase, as opposed to non-mammalian enzymes often used by other investigators, such as mushroom tyrosinase. Since the biochemical and pharmacologic characteristics of an enzyme or isozyme can vary dramatically between species of organisms (e.g., due to dissimilarities in primary, secondary, and tertiary structure), it is highly preferable that candidate topical skin lighteners intended for human use be discovered based on their biochemical action against a mammalian source of the enzyme. Mushroom tyrosinase (and in some instances plant polyphenol oxidases) has been used in the vast majority of prior inhibitor studies. […] Thus, the methods reported by the inventors of the present invention for screening against mammalian tyrosinase or within melanocytes is highly preferred over other possible screening strategies.
The substrate kinetic “affinity” of mammalian tyrosinase for L-tyrosine is approximately KM=600 μM. A potentially effective candidate skin lightening agent is considered to be desirable, active, and/or functional if it renders 50% inhibition of mammalian tyrosinase enzyme activity, at concentrations below half the enzyme's “affinity” for tyrosine in cell-free enzyme extracts (IC50≦300 μM) and pigment production in melanocyte cell cultures (IC50≦300 μM).
as §3

Mel-Ab melanocytes [3] = test: mammalian-melanocyte-culture toxicity assay system; type: cell-based, mouse; settings: read-out: T: concentration of compound that kills 50% of cells in the mammalian-melanocyte-culture toxicity assay system
From the text: as §1
[6] It should be noted that many inhibitors identified in cell-free enzymatic assays might have subsequent difficulties with toxicity or delivery in melanocyte cell-based assays. Therefore, all three in vitro assays in combination provide an excellent characterization of candidate skin lightening compounds.
as §3

[4] = UV absorbance: extinction coefficient at wavelength of maximum absorbency; type: physicochemical; settings: for compound extinction coefficient ε: at λmax
[5] = compared with HQ; cited from earlier work
Mel-Ab melanocytes [6] = settings: cited from earlier work
Salmonella = settings: cited from earlier work
Mel-Ab melanocytes [7] = settings: cited from earlier work; remark: listed apart in the source
mammalian tyrosinase [8] = biological target: T1, mammalian tyrosinase; settings: cited from earlier work
[9] = test system: Chinese hamster V79 cells; settings: cited from earlier work

Row | Compound | IC50 (Mel-Ab melanocytes [1]; Mus musculus, Mel-Ab) | IC50 (mammalian tyrosinase [2]) | IC50 (Mel-Ab melanocytes [3]; Mus musculus, Mel-Ab) | wavelength of maximum absorbency λmax [4] | compound extinction coefficient ε [4] | further results
1 | COc1ccc(N)cc1OC [ID # 006] | 182 µM | 110 µM | > 1000 µM | – | – | –
2 | NC(=S)Nc1ccccc1 [ID # 033] | 12 µM | 2 µM | > 1000 µM | – | – | –
3 | COC(=O)c1cccc(N)c1 [ID # 092] | 236 µM | 79 µM | > 1000 µM | – | – | –
4 | COc1ccc(CS)cc1 [ID # 082] | 81 µM | 5 µM | 500 µM | 275 nm | 1000 OD/M × cm | –
5 | Sc1nc2ccccc2[nH]1 [ID # 138] | – | 0.25 µM | – | 300 nm | 14300 OD/M × cm | –
6 | COc1ccc(S)cc1OC [ID # 103] | 8 µM | 8 µM | > 1000 µM | 250 nm | 4300 OD/M × cm | –
7 | CCOc1ccc2nc(S)sc2c1 [ID # 091] | – | > 1000 µM | – | – | – | IC50 (Mel-Ab melanocytes [1]): > 1000 µM; IC50 (Mel-Ab melanocytes [3]): > 1000 µM
8 | COc1cccc2[nH]c(S)nc12 [ID # 084] | – | 0.07 µM | – | 310 nm | 10000 OD/M × cm | IC50 (Mel-Ab melanocytes [1]): 1.6 µM; IC50 (Mel-Ab melanocytes [3]): > 1000 µM
9 | [Se]=c1[nH]c2ccccc2[nH]1 [ID # 098] | – | 0.8 µM | – | – | – | IC50 (Mel-Ab melanocytes [1]): 14 µM; IC50 (Mel-Ab melanocytes [3]): 132 µM
10 | O=C(O)c1cc(O)ccc1O [GA, 2,5-dihydroxybenzoic acid] | – | – | – | – | – | mutagenic activity [5]: lacking the mutagenic activity
11 | S=c1[nH]c2cccnc2[nH]1 [ID # 135] | – | 4 µM | – | – | – | IC50 (Mel-Ab melanocytes [1]): 256 µM; IC50 (Mel-Ab melanocytes [3]): > 1000 µM
12 | NCCc1cccs1 [ID # 073] | 100 µM | > 1000 µM | > 1000 µM | – | – | –
13 | CC(=O)Nc1ccc(SC(C)=O)cc1 [ID # 148] | – | 500 µM | – | 255 nm | 3300 OD/M × cm | IC50 (Mel-Ab melanocytes [1]): 30 µM; IC50 (Mel-Ab melanocytes [3]): 125 µM
14 | COc1ccc(C(N)=S)cc1 [ID # 100] | 62 µM | 32 µM | > 1000 µM | – | – | –
15 | Sc1nc2ccccc2s1 [ID # 040] | – | 8 µM | – | – | – | –
16 | COc1cccc(S)c1 [ID # 099] | 85 µM | 53 µM | 202 µM | 265 nm | 3000 OD/M × cm | –
17 | Oc1ccc2c(c1)OCO2 [ID # 009] | 209 µM | 98 µM | 775 µM | – | – | –
18 | CSc1ccc(S)cc1 [ID # 102] | 115 µM | 0.24 µM | 126 µM | 280 nm | 2300 OD/M × cm | –
19 | COc1ccc(OC)c(S)c1 [ID # 093] | – | 500 µM | – | 305 nm | 2700 OD/M × cm | IC50 (Mel-Ab melanocytes [1]): 200 µM; IC50 (Mel-Ab melanocytes [3]): 200 µM
20 | CC(=S)Nc1ccccc1 [ID # 054] | 16 µM | 16 µM | > 1000 µM | – | – | –
21 | Oc1ccc2[nH]ccc2c1 [ID # 026] | 153 µM | 54 µM | 367 µM | – | – | –
22 | Oc1ccc(O)cc1 [hydroquinone] | – | – | – | – | – | cytotoxicity to cultured mammalian melanocytes (in words) (Mel-Ab melanocytes [6]): potent cytotoxicity; cytotoxicity to cultured mammalian melanocytes (in words) (Mel-Ab melanocytes [6]; listed as HQ): cytotoxic; mutagenicity in Salmonella (Salmonella): mutagenic; IC50 on Mel-Ab culture (Mel-Ab melanocytes [7]; positive control, owing to cytotoxicity, not inhibition of pigmentation per se): low micrograms per milliliter range; inhibition of the mammalian tyrosinase enzyme (in words) (mammalian tyrosinase [8]): minimal enzymatic inhibition; inhibition of the mammalian tyrosinase enzyme (in words) (mammalian tyrosinase [8]; listed as HQ): not an effective inhibitor; mutagenicity in mammalian Chinese hamster V79 cells [9]: mutagenic
23 | COC(=O)c1cc(O)ccc1O [methyl gentisate] | – | – | – | – | – | melanocyte cytotoxicity IC50 (Mel-Ab melanocytes [6]; Curto et al. (1999)): 118.7 ± 12 µg/mL; mutagenic activity [5]: lacking the mutagenic activity; IC50 in melanocyte cell cultures (Mel-Ab melanocytes [7]; Curto et al. (1999)): 30.9 ± 5 µg/mL (≈ 184 µM); inhibition of melanin accumulation (in words) (Mel-Ab melanocytes [7]; murine melanocyte cell culture primary screen): moderately potent inhibitor; IC50 against tyrosinase activity in cell-free assays (mammalian tyrosinase [8]; Curto et al. (1999)): 11.2 ± 4 µg/mL (≈ 66.6 µM)
24 | CC(=O)Nc1ccc(S)cc1 [ID # 083] | 82 µM | 19 µM | 542 µM | 265 nm | 4700 OD/M × cm | –
25 | Cc1cccc2[nH]c(S)nc12 [ID # 140] | – | 0.12 µM | – | 305 nm | 6300 OD/M × cm | IC50 (Mel-Ab melanocytes [1]): 2.4 µM; IC50 (Mel-Ab melanocytes [3]): > 1000 µM
26 | Nc1ccc2c(c1)CCC2 [ID # 079] | 71 µM | 73 µM | 472 µM | – | – | –
27 | CC(=O)n1c(=S)[nH]c2ccccc21 [ID # 205] | 8.3 µM | 0.5 µM | 35 µM | – | – | –
